Several values for one entry are separate records, joined by “and”; a condition that tells them apart may be missing. Equal values may be shown once. Inconclusive results and toxic doses are left out.
Tested on: BDF1 mice, L1210 leukemia sc, survival T/C
Assay: NCI In Vivo Anticancer Drug Screen. Data for tumor model L1210 Leukemia (subcutaneous) in B6D2F1 (BDF1) mice
Settings: endpoint: median survival time, higher = longer survival
In short: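 Tumors were transplanted into mice, the animals were treated with compound, survival or tumor size was then measured, and treated values were divided by vehicle-control values.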

O=C(Nc1ccc(C2=NCCN2)cc1)c1ccc(C(=O)Nc2ccc(C3=NCCN3)cc2)c(Cl)c1
T/C (dose: 0.19 mg/kg/injection, schedule: Q01DX Z (iv), vehicle: water): 100 % of control
T/C (dose: 0.38 mg/kg/injection, schedule: Q01DX Z (iv), vehicle: water): 100 % of control
T/C (dose: 0.75 mg/kg/injection, schedule: Q01DX Z (iv), vehicle: water): 90 % of control
T/C (dose: 1.3 mg/kg/injection, schedule: Q01DX Z (ip), vehicle: water): 95 % of control
T/C (dose: 1.5 mg/kg/injection, schedule: Q01DX Z (iv), vehicle: water): 95 % of control
T/C (dose: 2.16 mg/kg/injection, schedule: Q01DX Z (ip), vehicle: water): 100 % of control
T/C (dose: 2.16 mg/kg/injection, schedule: Q01DX Z (sc), vehicle: water): 95 % of control
T/C (dose: 2.5 mg/kg/injection, schedule: Q01DX Z (sc), vehicle: methylcellulose (MC)): 111 % of control
T/C (dose: 3.0 mg/kg/injection, schedule: Q01DX Z (ip), vehicle: water): 100 % of control
T/C (dose: 3.0 mg/kg/injection, schedule: Q01DX Z (iv), vehicle: water): 100 % of control
T/C (dose: 3.0 mg/kg/injection, schedule: Q01DX Z (sc), vehicle: saline): 100 % of control and 104 % of control
T/C (dose: 3.6 mg/kg/injection, schedule: Q01DX Z (ip), vehicle: water): 90 % of control
T/C (dose: 3.6 mg/kg/injection, schedule: Q01DX Z (sc), vehicle: water): 100 % of control
T/C (dose: 5.0 mg/kg/injection, schedule: Q01DX Z (ip), vehicle: water): 100 % of control
T/C (dose: 5.0 mg/kg/injection, schedule: Q01DX Z (sc), vehicle: methylcellulose (MC)): 116 % of control
T/C (dose: 5.0 mg/kg/injection, schedule: Q01DX Z (sc), vehicle: saline): 100 % of control
T/C (dose: 5.0 mg/kg/injection, schedule: Q01DX Z (sc), vehicle: water): 110 % of control and 111 % of control
T/C (dose: 6.0 mg/kg/injection, schedule: Q01DX Z (ip), vehicle: water): 95 % of control
T/C (dose: 6.0 mg/kg/injection, schedule: Q01DX Z (iv), vehicle: water): 100 % of control
T/C (dose: 6.0 mg/kg/injection, schedule: Q01DX Z (sc), vehicle: water): 100 % of control
T/C (dose: 8.4 mg/kg/injection, schedule: Q01DX Z (ip), vehicle: water): 160 % of control
T/C (dose: 8.4 mg/kg/injection, schedule: Q01DX Z (sc), vehicle: saline): 109 % of control and 110 % of control and 122 % of control
T/C (dose: 8.4 mg/kg/injection, schedule: Q01DX Z (sc), vehicle: water): 170 % of control
T/C (dose: 10.0 mg/kg/injection, schedule: Q01DX Z (ip), vehicle: water): 105 % of control
T/C (dose: 10.0 mg/kg/injection, schedule: Q01DX Z (sc), vehicle: methylcellulose (MC)): 244 % of control
T/C (dose: 10.0 mg/kg/injection, schedule: Q01DX Z (sc), vehicle: water): 120 % of control and 233 % of control
T/C (dose: 12.0 mg/kg/injection, schedule: Q01DX Z (sc), vehicle: water): 181 % of control
T/C (dose: 14.0 mg/kg/injection, schedule: Q01DX Z (ip), vehicle: water): 160 % of control
T/C (dose: 14.0 mg/kg/injection, schedule: Q01DX Z (sc), vehicle: saline): 210 % of control
T/C (dose: 14.0 mg/kg/injection, schedule: Q01DX Z (sc), vehicle: water): 190 % of control and 170 % of control
T/C (dose: 14.0 mg/kg/injection, schedule: Q02DX Z (sc), vehicle: saline): 100 % of control
T/C (dose: 17.0 mg/kg/injection, schedule: Q01DX001 (ip), vehicle: water): 100 % of control
T/C (dose: 17.0 mg/kg/injection, schedule: Q01DX Z (sc), vehicle: water): 210 % of control
T/C (dose: 20.0 mg/kg/injection, schedule: Q01DX Z (sc), vehicle: methylcellulose (MC)): 244 % of control
T/C (dose: 20.0 mg/kg/injection, schedule: Q01DX Z (sc), vehicle: water): 244 % of control
T/C (dose: 23.0 mg/kg/injection, schedule: Q01DX Z (ip), vehicle: water): 180 % of control
T/C (dose: 23.0 mg/kg/injection, schedule: Q01DX Z (sc), vehicle: other): 210 % of control
T/C (dose: 23.0 mg/kg/injection, schedule: Q01DX Z (sc), vehicle: saline): 195 % of control and 200 % of control
T/C (dose: 23.0 mg/kg/injection, schedule: Q01DX Z (sc), vehicle: water): 210 % of control and 240 % of control and 170 % of control
T/C (dose: 23.0 mg/kg/injection, schedule: Q02DX Z (sc), vehicle: saline): 110 % of control
T/C (dose: 23.0 mg/kg/injection, schedule: Q## X Z (sc), vehicle: saline): 110 % of control
T/C (dose: 24.0 mg/kg/injection, schedule: Q01DX Z (sc), vehicle: water): 200 % of control
T/C (dose: 28.0 mg/kg/injection, schedule: Q01DX001 (ip), vehicle: water): 100 % of control
T/C (dose: 28.0 mg/kg/injection, schedule: Q01DX Z (ip), vehicle: water): 205 % of control
T/C (dose: 28.0 mg/kg/injection, schedule: Q01DX Z (sc), vehicle: water): 190 % of control
T/C (dose: 39.0 mg/kg/injection, schedule: Q01DX Z (sc), vehicle: other): 200 % of control
T/C (dose: 39.0 mg/kg/injection, schedule: Q01DX Z (sc), vehicle: saline): 180 % of control and 185 % of control and 195 % of control
T/C (dose: 39.0 mg/kg/injection, schedule: Q01DX Z (sc), vehicle: water): 210 % of control and 195 % of control
T/C (dose: 39.0 mg/kg/injection, schedule: Q## X Z (sc), vehicle: saline): 170 % of control
T/C (dose: 40.0 mg/kg/injection, schedule: Q01DX001 (sc), vehicle: methylcellulose (MC)): 111 % of control
T/C (dose: 40.0 mg/kg/injection, schedule: Q01DX Z (sc), vehicle: methylcellulose (MC)): 177 % of control
T/C (dose: 40.0 mg/kg/injection, schedule: Q01DX Z (sc), vehicle: water): 227 % of control
T/C (dose: 47.0 mg/kg/injection, schedule: Q01DX001 (ip), vehicle: water): 100 % of control
T/C (dose: 47.0 mg/kg/injection, schedule: Q01DX Z (sc), vehicle: water): 200 % of control
T/C (dose: 48.0 mg/kg/injection, schedule: Q01DX Z (sc), vehicle: water): 181 % of control
T/C (dose: 65.0 mg/kg/injection, schedule: Q01DX Z (sc), vehicle: other): 180 % of control
T/C (dose: 65.0 mg/kg/injection, schedule: Q01DX Z (sc), vehicle: saline): 155 % of control and 163 % of control and 166 % of control
T/C (dose: 65.0 mg/kg/injection, schedule: Q01DX Z (sc), vehicle: water): 155 % of control and 185 % of control and 170 % of control
T/C (dose: 65.0 mg/kg/injection, schedule: Q## X Z (sc), vehicle: saline): 200 % of control
T/C (dose: 78.0 mg/kg/injection, schedule: Q01DX001 (ip), vehicle: water): 100 % of control
T/C (dose: 78.0 mg/kg/injection, schedule: Q01DX001 (sc), vehicle: water): 100 % of control
T/C (dose: 78.0 mg/kg/injection, schedule: Q01DX Z (sc), vehicle: water): 170 % of control
T/C (dose: 80.0 mg/kg/injection, schedule: Q01DX001 (sc), vehicle: methylcellulose (MC)): 116 % of control
T/C (dose: 80.0 mg/kg/injection, schedule: Q01DX Z (sc), vehicle: methylcellulose (MC)): 111 % of control
T/C (dose: 80.0 mg/kg/injection, schedule: Q01DX Z (sc), vehicle: water): 155 % of control
T/C (dose: 108.0 mg/kg/injection, schedule: Q01DX001 (sc), vehicle: saline): 170 % of control
T/C (dose: 108.0 mg/kg/injection, schedule: Q01DX Z (sc), vehicle: saline): 154 % of control
T/C (dose: 108.0 mg/kg/injection, schedule: Q02DX Z (sc), vehicle: saline): 200 % of control
T/C (dose: 130.0 mg/kg/injection, schedule: Q01DX001 (ip), vehicle: water): 105 % of control
T/C (dose: 130.0 mg/kg/injection, schedule: Q01DX001 (sc), vehicle: water): 110 % of control
T/C (dose: 160.0 mg/kg/injection, schedule: Q01DX001 (sc), vehicle: methylcellulose (MC)): 166 % of control
T/C (dose: 160.0 mg/kg/injection, schedule: Q01DX001 (sc), vehicle: water): 161 % of control
T/C (dose: 180.0 mg/kg/injection, schedule: Q01DX001 (sc), vehicle: saline): 190 % of control
T/C (dose: 180.0 mg/kg/injection, schedule: Q01DX Z (sc), vehicle: other): 115 % of control
T/C (dose: 180.0 mg/kg/injection, schedule: Q02DX Z (sc), vehicle: saline): 180 % of control
T/C (dose: 300.0 mg/kg/injection, schedule: Q01DX Z (sc), vehicle: other): 90 % of control
T/C (dose: 300.0 mg/kg/injection, schedule: Q01DX Z (sc), vehicle: water): 105 % of control
T/C (dose: 300.0 mg/kg/injection, schedule: Q02DX Z (sc), vehicle: saline): 170 % of control
T/C (dose: 300.0 mg/kg/injection, schedule: Q## X Z (sc), vehicle: saline): 205 % of control
T/C (dose: 320.0 mg/kg/injection, schedule: Q01DX001 (sc), vehicle: water): 222 % of control
T/C (dose: 360.0 mg/kg/injection, schedule: Q01DX001 (sc), vehicle: water): 155 % of control
T/C (dose: 500.0 mg/kg/injection, schedule: Q## X Z (sc), vehicle: saline): 200 % of control
T/C (dose: 600.0 mg/kg/injection, schedule: Q01DX001 (sc), vehicle: water): 150 % of control
